In US20230414654A1, “METHODS OF TREATING COPPER METABOLISM-ASSOCIATED DISEASES OR DISORDERS” (Alexion Pharmaceuticals, Inc., priority 2020, published 2023):
Like-named read-outs stand apart in the source and are kept apart here. Marks after values point to notes of the source that are not given here.

Experiments:
[1] = Mobilization of copper from tissue (Studies 106, 201, 203); conditions: Study 106, Study 201 (BC-TTM); Study 203 (SoC)
[2] = cited from earlier work
[3] = in vivo; cited from earlier work
participants with WD = conditions: for participants considered successfully treated (NCC/NCCcorrected primary endpoint): by Week 24; for participants considered successful (primary endpoint): last assessment of Extension Period
Procedure: This study was conducted in US and European sites. […] A total of 28 participants were enrolled and treated (10 in Cohort 1 [treatment experienced] and 18 in Cohort 2 [treatment naïve or minimally treated]). One participant was enrolled in Cohort 2 but not treated.
NCC levels within or above the normal reference range at enrollment were required. […] Dosing was individualized, guided by NCC levels (adjusted for molybdenum plasma concentration) and safety data. The primary efficacy endpoint was related to the proportion of successful participants, i.e., the proportion of participants who achieved plasma “free” copper control or improvement from baseline.
Due to small sample size and data variability, the median values for the weighted averages of the doses will be cited throughout.
The primary endpoint in study 201 was the change in NCC/NCCcorrected from baseline to Week 24.
In Study 201, 12-hour dense PK/PD samples for plasma total molybdenum and copper were collected on Day 1, Week 12, and Week 24. Plasma samples for assessing “free” copper were also collected at 0, 4, and 8 hours during those visits and assayed for LBC concentrations. For the purpose of comparison across Studies 106 and 201, FIG. 3 has super-imposed LBC/total copper ratios-time profiles within the 12-hour time window after dosing from both studies.

Procedure for healthy participants: Twenty-four participants were enrolled (12 Japanese and 12 non-Japanese). […] Participants were followed 10 days after dosing within each Dosing Period, and a minimum of 14 days (+2 days) separated the dosing periods. PK and PD concentrations were measured over the next several hours for the first day and once daily for the next 9 days. Therefore, Study 106 permits examination of PK and PD profile changes within hours after drug administration.

For CC(C)(S)[C@@H](N)C(=O)O [Penicillamine, (2S)-2-amino-3-methyl-3-sulfanylbutanoic acid], the “Mobilization of Copper from Tissue” value [1] was “No (Study 203)”.

In the case of NCCNCCNCCN [Trientine, N-[2-(2-aminoethylamino)ethyl]ethane-1,2-diamine], the “Cu-Binding Selectivity” value [2] is listed as “Cu^2+, and other” and the “Mobilization of Copper from Tissue” value [1] is listed as “No”.

For [Zn] [Zinc, zinc], the “Route of Copper Elimination” value [3] is given as “Non-absorbed” and the “Mobilization of Copper from Tissue” value [1] is given as “No (Study 203)”.

In the case of Bis-choline tetrathiomolybdate [BC-TTM], the “drop of LTC Ratio (LBC/total copper) from baseline” value (participants with WD; Day 1, 4 hours post dose, weighted average dose 30 mg) is reported as roughly 30%, the “nadir drop of LTC Ratio compared to Day 1 pre-dose baseline” value (participants with WD; Week 24, 4 hours post-dose, weighted average dose 35.8 mg) is reported as roughly 50% and the “reduction of mean serum non-ceruloplasmin-bound Cu (NCC)” value (participants with WD; Week 24 compared with baseline, 28 patients with WD, monotherapy) is reported as 72%. For the same molecule, the “reduction of pre-dose LTC Ratio compared to Day 1 pre-dose baseline” value (participants with WD; Week 24 pre-dose, weighted average dose 35.8 mg) was roughly 30%, the “participants considered successfully treated (NCC/NCCcorrected primary endpoint)” value (participants with WD; Cohort 1 (treatment experienced)) was 90.0% and the “participants considered successfully treated (NCC/NCCcorrected primary endpoint)” value (participants with WD; Cohort 2 (treatment naïve or minimally treated)) was 83.3%. For the same molecule, the “paradoxical neurological worsening upon treatment initiation” value (participants with WD; in vivo) was “No paradoxical neurological worsening was observed”, the “patients with reversible liver function test elevations” value (participants with WD; in vivo) was 39% and the tolerability (participants with WD; in vivo) was “generally well-tolerated”. For the same molecule, the “participants considered successful (primary endpoint)” value (participants with WD; Cohort 1) was 90.0%, the “participants considered successful (primary endpoint)” value (participants with WD; Cohort 2) was 83.3% and the “participants considered successful (primary endpoint)” value (participants with WD; all participants) was 85.7%. For the same molecule, the “time of maximum plasma total copper concentration post dose” value (healthy participants; 15 mg or 60 mg single dose) was 8 to 12 h, the “maximum median increase of plasma total copper from baseline” value (healthy participants; 8-12 hours post dose) was 26-34% and the “median plasma LBC as % of pre-dose baseline concentration” value (healthy participants; 12-24 hours post dose, combined ethnicity and dose data) was 80-90%. For the same molecule, the “median plasma LBC nadir as % of pre-dose baseline concentration” value (healthy participants; 3 hours post dose, combined ethnicity and dose data) was 50-70%, the “percentage of plasma LBC relative to plasma total copper (AUEC)” value (healthy participants; after administration, all participants, both ethnicities and doses pooled) was 7% and the “time at which median plasma LBC returned to baseline” value (healthy participants; after dose) was 10 days. For the same molecule, the “maximum individual plasma LBC concentration” value (healthy participants; after single 15 mg dose) was 2.79 µM, the “maximum individual plasma total copper concentration” value (healthy participants; after single 15 mg dose) was 23.0 µM and the “maximum individual plasma LBC concentration” value (healthy participants; after single 60 mg dose) was 2.93 µM. The “maximum individual plasma total copper concentration” value (healthy participants; after single 60 mg dose) was 21.7 µM, the “dose proportionality of plasma total molybdenum Cmax and AUC” value (healthy participants; human, in vivo) was “less than dose-proportionally” and the “time to maximum plasma molybdenum (Tmax)” value (healthy participants; human, in vivo) was 5 h. For the same molecule, the “delay of maximum plasma total copper after maximum plasma total molybdenum” value (healthy participants; in vivo) was 3 to 7 h, the “plasma molybdenum anticipated to be in the form of TPCs” value (healthy participants; in vivo) was “approximately 96%” and the “time at which total copper concentrations had returned to predose baseline” value (healthy participants; post dose) was 240 h. The “Cu-Binding Selectivity” value [2] was “Cu^+ and Cu^2+*”, the “Route of Copper Elimination” value [3] was “Biliary/fecal” and the “Mobilization of Copper from Tissue” value [1] was “Yes (Study 106;”.
